# Results: US20130158063A1, “Compounds, Compositions and Methods Related to PPAR Antagonists” (GEORGETOWN UNIVERSITY, priority 2010, published 2013)
# Entries after “also recorded” stand apart in the source; their conditions may differ.
# Columns and labels:
# [1] = molecular target: T1, PPARδ (Homo sapiens, UniProt Q03181); settings: cited from earlier work
# T1 construct: purchased Cayman Chemicals
# T1 sequence (Q03181 1-441): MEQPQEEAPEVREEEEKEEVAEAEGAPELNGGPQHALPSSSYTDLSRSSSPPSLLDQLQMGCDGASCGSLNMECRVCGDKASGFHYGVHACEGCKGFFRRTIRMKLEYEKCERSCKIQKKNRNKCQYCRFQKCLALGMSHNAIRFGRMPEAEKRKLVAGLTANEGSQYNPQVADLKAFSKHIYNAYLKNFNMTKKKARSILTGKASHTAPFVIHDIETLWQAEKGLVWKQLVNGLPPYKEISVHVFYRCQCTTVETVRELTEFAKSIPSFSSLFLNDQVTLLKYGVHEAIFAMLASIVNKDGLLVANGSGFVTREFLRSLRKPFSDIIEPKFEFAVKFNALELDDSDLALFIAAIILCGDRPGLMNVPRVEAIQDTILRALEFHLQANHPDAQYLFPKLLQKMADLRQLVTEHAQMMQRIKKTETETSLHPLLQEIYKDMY
# [2] = test system: Mouse mammary tumor cell lines MC, 437T, 105T and 34T; Comma1D mammary epithelial cell line; test: Cytotoxicity against mammary cell lines; format: cell-based; settings: 0-25 μM BTB07995, with and without GW501516
# Description: Mouse mammary tumor cell lines MC, 437T, 105T and 34T were generated from primary DMBA-induced tumors in wild-type FVB, MMTV-Pax8PPARγ transgenic, Sca-1 null and Sca-1+/EGFP mice. Comma1D is an immortalized mammary epithelial cell line.
# [3] = test system: PPARα, PPARγ, PPARδ; test: PPAR reporter assays, isotype profile over the three PPARs; settings: for PPAR inhibitor type (Table 1): from reporter data
# [4] = test system: PPARδ; test: PPAR reporter assay in 293T cells, PPARδ (agonist GW501516); format: cell-based; settings: 1 μM agonist GW501516
# [5] = test system: PPARα; test: PPAR reporter assay in 293T cells, PPARα (agonist WY14643); format: cell-based; settings: 1 μM agonist WY14643
# [6] = molecular target: T2, PPARγ (Homo sapiens, UniProt P37231); test: Fluorescent Polarization (FP) binding assay with corepressor peptides, PPARγ; settings: FP assay; Nb = no binding; read-out: Binding assay EC50, γ
# T2 construct: purchased Cayman Chemicals
# T2 sequence (P37231 238-503 limits assumed): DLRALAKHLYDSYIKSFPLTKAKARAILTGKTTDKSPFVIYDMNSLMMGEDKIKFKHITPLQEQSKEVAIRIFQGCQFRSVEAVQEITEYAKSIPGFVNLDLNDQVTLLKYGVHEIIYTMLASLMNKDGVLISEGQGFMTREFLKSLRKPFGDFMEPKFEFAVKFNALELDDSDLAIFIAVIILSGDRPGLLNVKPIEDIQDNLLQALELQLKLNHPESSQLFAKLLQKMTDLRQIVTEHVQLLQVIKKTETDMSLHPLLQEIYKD
# Experimental: (§1) For PPARγ screening, a fluorescent ligand supplied by Cayman Chemicals was also used. All compounds were dissolved in DMSO as 10 mM stock solutions and the final DMSO content in the assay was <1%. A TECAN Ultra 485 multi-functional microplate reader and GraphPad prism 4 software were used for measurements and analysis, respectively.
# (§2) PPAR antagonists are expected to enhance the affinities of the corepressor peptides, and therefore, FP should increase as the compound concentration increases. Agonists would be expected to weaken the affinity of the same co-repressor peptide. Although this effect occurs for PPARγ, the dissociation of corepressor peptides varies for PPARα and PPARδ due to altered presentations of the overlapping coactivator/corepressor binding surfaces (Stanley T. B. et al. Biochemistry 42:9278-87, 2003). Compounds were screened initially against PPARγ and PPARδ at 1 and 100 μM. If binding was observed, titration experiments from 10 nM to 100 μM were carried out in triplicate with all three PPARs. […] For screening, either enhancement or weakening of FP was considered active.
# (§3) Virtual screening for PPARγ was conducted against 56,000 compounds from the Maybridge library that targeted the ligand binding domain (LBD) of PPARγ, and 10 conformations of each compound were docked to the LBD using Autdock4 software (Scripps Institute). Sixty of the top ranked compounds were ordered from Maybridge, and 58 were available for evaluation. Fluorescent Polarization (FP) assays were established with the tagged co-repressor peptides NCoR1 and SMRT, the recombinant PPARα and PPARγ ligand-binding domains and full-length PPARδ. […] Sd-107 and its analogs are disclosed herein. The chemical structure is shown below.
# [7] = molecular target: T3, PPARγ (Mus musculus, UniProt P37238); test: PPAR reporter assay in 293T cells, PPARγ (agonist GW7845); format: cell-based; settings: HEK-293T, 1 μM agonist GW7845, 293T cells, read-out: Reporter assay (% inhibition), γ; for inhibition at 1 µM: 1 μM compound; for inhibition at 10 µM: 10 μM compound; for inhibition at 25 µM: 25 μM compound
# T3 construct: expressed in transfected cells; host or cells: 293T cells
# T3 sequence (P37238 1-505): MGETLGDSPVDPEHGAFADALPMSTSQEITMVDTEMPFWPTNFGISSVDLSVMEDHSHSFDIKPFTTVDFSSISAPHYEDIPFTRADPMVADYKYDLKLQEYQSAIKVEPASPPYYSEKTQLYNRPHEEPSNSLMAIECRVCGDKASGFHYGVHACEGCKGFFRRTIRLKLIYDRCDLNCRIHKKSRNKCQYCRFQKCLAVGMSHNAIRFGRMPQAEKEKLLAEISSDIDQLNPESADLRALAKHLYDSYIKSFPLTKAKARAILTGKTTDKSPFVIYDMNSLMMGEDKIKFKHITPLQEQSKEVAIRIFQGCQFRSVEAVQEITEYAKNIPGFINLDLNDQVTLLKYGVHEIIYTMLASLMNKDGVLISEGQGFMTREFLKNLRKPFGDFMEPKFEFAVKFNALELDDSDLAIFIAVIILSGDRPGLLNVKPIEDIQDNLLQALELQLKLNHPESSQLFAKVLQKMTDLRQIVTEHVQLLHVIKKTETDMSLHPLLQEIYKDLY
# [8] = molecular target: T1, PPARδ; test: Fluorescent Polarization (FP) binding assay with corepressor peptides, PPARδ; settings: Nb = no binding
# Experimental: as §1, §2, §3
# [9] = molecular target: T4, PPARα (Homo sapiens, UniProt Q07869); test: Fluorescent Polarization (FP) binding assay with corepressor peptides, PPARα; settings: Nb = no binding
# T4 construct: purchased Cayman Chemicals
# T4 sequence (Q07869 239-466 limits assumed): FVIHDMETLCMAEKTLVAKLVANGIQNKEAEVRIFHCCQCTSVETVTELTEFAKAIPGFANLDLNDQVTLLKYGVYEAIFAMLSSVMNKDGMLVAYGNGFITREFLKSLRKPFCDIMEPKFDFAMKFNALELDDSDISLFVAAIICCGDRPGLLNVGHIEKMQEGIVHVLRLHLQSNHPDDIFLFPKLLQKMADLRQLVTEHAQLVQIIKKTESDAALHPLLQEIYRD
# Experimental: as §1, §2, §3
Compound,PPARδ ligand potency and selectivity (literature) [1],Cytotoxicity to mouse mammary cell lines [2],"Agonist activity in Gal4-mPPAR reporter assays ([3]; 293T cells, 24 hr, absence of specific ligand)",PPAR isotype selectivity in reporter assays ([3]; inhibition of activation by 1 μM agonist),"Reporter assay (% inhibition), δ ([4]; 1 μM compound)","Reporter assay (% inhibition), δ ([4]; 10 μM compound)","Reporter assay (% inhibition), δ ([4]; 25 μM compound)","Reporter assay (% inhibition), α ([5]; 1 μM compound)","Reporter assay (% inhibition), α ([5]; 10 μM compound)","Reporter assay (% inhibition), α ([5]; 25 μM compound)",EC50 [6],inhibition at 1 µM [7],inhibition at 10 µM [7],inhibition at 25 µM [7],"Binding assay EC50, δ [8]","Binding assay EC50, α [9]",PPAR inhibitor type (Table 1) [3]
"O=C(NCCS(=O)(=O)c1ccc(C(F)(F)F)cn1)c1ccc(Cl)cc1 [BTB07995, reference compound]",potent and selective ligand for PPARδ,not cytotoxic,"not an agonist for PPARα, PPARδ and PPARγ",PPARδ selectivity at lower concentrations; also recorded: selective antagonist of PPARδ,,,,,,,,,,,,,
CC(=O)Oc1ccc(C(=O)NN(C(=O)c2ccc(OC(C)=O)cc2)S(=O)(=O)c2ccc(C(C)(C)C)cc2)cc1 [YL-1-87],,,,,δ 18%,23%,60%,0%,0%,52%,0.41 µM,19%,28%,79%,δ nb,nb,Pan inhibitor
CC(C)(C)c1ccc(S(=O)(=O)N(NC(=O)c2ccc(O)cc2)C(=O)c2ccc(O)cc2)cc1 [YL-1-88],,,,,0%,14%,40%,0%,0%,0%,22.3 µM,0%,0%,10%,δ nb,nb,PPARδ inhibitor
